Data on 39 compounds can be found in ChEMBL document CHEMBL5380778, “Structure-Directed Discovery of Potent Soluble Epoxide Hydrolase Inhibitors for the Treatment of Inflammatory Diseases” (J Med Chem, 2023).

Assay [1] concerns the target T1, Bifunctional epoxide hydrolase 2 (Mus musculus, UniProt P34914).
T1 sequence (P34914 whole entry): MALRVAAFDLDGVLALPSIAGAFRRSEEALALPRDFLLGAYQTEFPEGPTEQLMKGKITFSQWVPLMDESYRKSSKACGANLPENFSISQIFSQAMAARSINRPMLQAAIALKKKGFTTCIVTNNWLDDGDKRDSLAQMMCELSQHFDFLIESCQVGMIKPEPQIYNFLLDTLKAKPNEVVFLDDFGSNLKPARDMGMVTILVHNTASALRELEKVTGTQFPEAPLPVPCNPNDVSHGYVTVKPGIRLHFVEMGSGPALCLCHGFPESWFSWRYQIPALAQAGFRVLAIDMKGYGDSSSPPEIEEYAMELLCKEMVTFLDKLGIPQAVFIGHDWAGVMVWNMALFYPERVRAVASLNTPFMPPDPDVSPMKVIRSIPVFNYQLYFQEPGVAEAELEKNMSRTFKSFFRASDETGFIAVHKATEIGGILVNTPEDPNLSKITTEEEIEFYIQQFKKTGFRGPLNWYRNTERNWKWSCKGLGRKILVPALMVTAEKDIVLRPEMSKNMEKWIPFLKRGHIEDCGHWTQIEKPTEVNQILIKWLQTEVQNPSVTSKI
Description: Inhibition of recombinant mouse soluble epoxide hydrolase using PHOME as substrate assessed as 6-methoxynaphthaldehyde product formation preincubated with compound for 10 mins followed by substrate addition and measured by fluorescence based analysis.

Assay [2] addresses T2, Bifunctional epoxide hydrolase 2 (Homo sapiens, UniProt P34913).
T2 sequence (P34913 whole entry): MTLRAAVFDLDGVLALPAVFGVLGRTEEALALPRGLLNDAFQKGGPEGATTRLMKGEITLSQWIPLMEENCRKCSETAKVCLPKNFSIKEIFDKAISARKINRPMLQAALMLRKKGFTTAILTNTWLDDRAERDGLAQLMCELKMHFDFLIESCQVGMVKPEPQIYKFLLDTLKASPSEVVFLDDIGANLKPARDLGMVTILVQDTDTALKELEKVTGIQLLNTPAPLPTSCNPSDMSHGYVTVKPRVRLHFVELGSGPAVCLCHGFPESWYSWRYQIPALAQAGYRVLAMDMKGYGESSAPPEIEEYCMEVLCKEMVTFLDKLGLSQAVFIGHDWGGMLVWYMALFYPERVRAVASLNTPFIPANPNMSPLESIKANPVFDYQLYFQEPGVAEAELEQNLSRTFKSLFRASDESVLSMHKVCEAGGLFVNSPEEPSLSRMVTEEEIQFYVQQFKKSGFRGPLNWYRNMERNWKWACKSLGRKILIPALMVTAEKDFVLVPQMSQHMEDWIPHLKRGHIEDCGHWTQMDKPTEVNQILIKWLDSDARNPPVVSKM
Description: Inhibition of recombinant human soluble epoxide hydrolase using PHOME as substrate assessed as 6-methoxynaphthaldehyde product formation preincubated with compound for 10 mins followed by substrate addition and measured by fluorescence based analysis.

As a reminder, the IC50 is the point on the concentration scale where inhibition reaches its midpoint. Turning to `CCC(=O)N1CCC(CC(=O)N2CCCN(C(=O)c3ccc(NC(=O)N[C@@]45C[C@@H]6C[C@@](C)(C[C@@](C)(C6)C4)C5)c(F)c3)CC2)CC1`, the IC50 was found to be 0.39 nM in assay [1] and 0.9 nM in assay [2].

As for `CC(O)CNC(=O)C1CCN(C(=O)c2ccc(NC(=O)N[C@@]34C[C@@H]5C[C@@](C)(C[C@@](C)(C5)C3)C4)c(F)c2)CC1` (stereo partly drawn), the values for the IC50 in assay [1] and in assay [2] were 0.18 nM and 4.5 nM, respectively.

As to `C[C@]12C[C@@H]3C[C@](C)(C1)C[C@@](NC(=O)Nc1ccc(C(=O)N4CCC(C(=O)NCCO)CC4)cc1F)(C3)C2`, the results for the IC50 in assay [1] and in assay [2] were 0.26 nM and 3.43 nM, respectively.

In the case of `C[C@]12C[C@@H]3C[C@](C)(C1)C[C@@](NC(=O)Nc1ccc(C(=O)NC4CCC(C(=O)NCCO)CC4)cc1F)(C3)C2` (stereo partly drawn), the figures for the IC50 in assay [1] and in assay [2] were 0.18 nM and 0.8 nM, respectively.

`CCN(CC)C(=O)C1CCN(C(=O)c2ccc(NC(=O)N[C@@]34C[C@@H]5C[C@@](C)(C[C@@](C)(C5)C3)C4)c(F)c2)CC1`: the IC50 was determined as 0.53 nM in assay [1] and 2.2 nM in assay [2].

Turning to `C[C@]12C[C@@H]3C[C@](C)(C1)C[C@@](NC(=O)Nc1ccc(CN4CCCC(C(=O)NC(CO)(CO)CO)C4)cc1F)(C3)C2` (stereo partly drawn), the figures for the IC50 in assay [1] and in assay [2] were 0.32 nM and 0.14 nM, respectively.

With `C[C@]12C[C@@H]3C[C@](C)(C1)C[C@@](NC(=O)Nc1ccc(CN4CCCC(C(=O)N5CCCN(C(=O)C6CC6)CC5)C4)cc1F)(C3)C2` (stereo partly drawn), the IC50 in assay [1] stood at 0.8 nM; in assay [2], 0.42 nM.

Take `C=CC(=O)N1CCCN(C(=O)C2CCCN(Cc3ccc(NC(=O)N[C@@]45C[C@@H]6C[C@@](C)(C[C@@](C)(C6)C4)C5)c(F)c3)C2)CC1` (stereo partly drawn): the IC50 came out at 1.1 nM in assay [1] and 0.42 nM in assay [2].

Turning to `C[C@]12C[C@@H]3C[C@](C)(C1)C[C@](NC(=O)Nc1ccc(C(=O)N4CCCC(C(=O)NCCO)C4)cc1F)(C3)C2` (stereo partly drawn), the IC50 in assay [1] was 0.15 nM; in assay [2] it was 0.35 nM.

`CC(O)CNC(=O)C1CCCN(Cc2ccc(NC(=O)N[C@@]34C[C@@H]5C[C@@](C)(C[C@@](C)(C5)C3)C4)c(F)c2)C1` (stereo partly drawn): the IC50 in assay [1] came out at 0.58 nM; in assay [2], 0.28 nM.

With `C[C@]12C[C@@H]3C[C@](C)(C1)C[C@@](NC(=O)Nc1ccc(CN4CCCC(C(=O)NCCO)C4)cc1F)(C3)C2` (stereo partly drawn), the values for the IC50 in assay [1] and in assay [2] were 0.18 nM and 0.63 nM, respectively.

`C[C@]12C[C@@H]3C[C@](C)(C1)C[C@@](NC(=O)Nc1ccc(CN4CCC(C(=O)N(CCO)CCO)CC4)cc1F)(C3)C2`: the half-maximal inhibitory concentration (IC50) is 0.55 nM in assay [1] and 6.72 nM in assay [2].

As to `CC(C)(C)OC(=O)N1CCN(CCNC(=O)C2CCC(NC(=O)c3ccc(NC(=O)N[C@@]45C[C@@H]6C[C@@](C)(C[C@@](C)(C6)C4)C5)c(F)c3)CC2)CC1` (stereo partly drawn), the IC50 was 2 nM in assay [1] and 183 nM in assay [2].

As for `C[C@]12C[C@@H]3C[C@](C)(C1)C[C@@](NC(=O)Nc1ccc(C(=O)N4CCCC(C(=O)O)C4)cc1F)(C3)C2` (stereo partly drawn), the values for the IC50 in assay [1] and in assay [2] were 1.3 nM and 4.6 nM, respectively.

As for `C[C@]12C[C@@H]3C[C@](C)(C1)C[C@@](NC(=O)Nc1ccc(CN4CCCC(C(=O)O)C4)cc1F)(C3)C2` (stereo partly drawn), the IC50 worked out at 0.61 nM in assay [1] and 2.3 nM in assay [2].

Regarding `C[C@]12C[C@@H]3C[C@](C)(C1)C[C@@](NC(=O)Nc1ccc(CN4CCC(C(N)=O)CC4)cc1F)(C3)C2`, the IC50 in assay [1] came to 0.06 nM; in assay [2], 1.54 nM.

`C[C@]12C[C@@H]3C[C@](C)(C1)C[C@@](NC(=O)Nc1ccc(CN4CCCC(C(=O)NC(CO)CO)C4)cc1F)(C3)C2` (stereo partly drawn): the IC50 worked out at 0.35 nM in assay [1] and 0.28 nM in assay [2].

Consider `C[C@]12C[C@@H]3C[C@](C)(C1)C[C@@](NC(=O)Nc1ccc(C(=O)NC4CCC(C(N)=O)CC4)cc1F)(C3)C2` (stereo partly drawn), for which the IC50 in assay [1] came to 0.35 nM; in assay [2], 0.84 nM.

Take `C[C@]12C[C@@H]3C[C@](C)(C1)C[C@@](NC(=O)Nc1ccc(C(=O)NC4CCC(C(=O)NC(CO)CO)CC4)cc1F)(C3)C2` (stereo partly drawn): the results for the IC50 in assay [1] and in assay [2] were 0.55 nM and 0.91 nM, respectively.

Consider `C[C@]12C[C@@H]3C[C@](C)(C1)C[C@@](NC(=O)Nc1ccc(C(=O)N4CCCC(C(=O)N5CCN(CCO)CC5)C4)cc1F)(C3)C2` (stereo partly drawn), for which the IC50 was 0.15 nM in assay [1] and 0.84 nM in assay [2].

Turning to `CC(O)CNC(=O)C1CCN(Cc2ccc(NC(=O)N[C@@]34C[C@@H]5C[C@@](C)(C[C@@](C)(C5)C3)C4)c(F)c2)CC1` (stereo partly drawn), the IC50 in assay [1] was 0.47 nM; in assay [2] it was 6 nM.

Take `C[C@]12C[C@@H]3C[C@](C)(C1)C[C@@](NC(=O)Nc1ccc(C(=O)NC4CCC(C(=O)NC(CO)(CO)CO)CC4)cc1F)(C3)C2` (stereo partly drawn): the 50% inhibitory concentration (IC50) in assay [1] came to 0.12 nM; in assay [2], 0.35 nM.

On to `C[C@]12C[C@@H]3C[C@](C)(C1)C[C@@](NC(=O)Nc1ccc(C(=O)NC4CCC(C(=O)N(CCO)CCO)CC4)cc1F)(C3)C2` (stereo partly drawn), for which the IC50 was 0.23 nM in assay [1] and 2.94 nM in assay [2].

Take `C[C@]12C[C@@H]3C[C@](C)(C1)C[C@@](NC(=O)Nc1ccc(CN4CCCC(C(N)=O)C4)cc1F)(C3)C2` (stereo partly drawn): the concentration for half-maximal inhibition (IC50) in assay [1] is 0.09 nM; in assay [2], 0.14 nM.

Regarding `C[C@]12C[C@@H]3C[C@](C)(C1)C[C@@](NC(=O)Nc1ccc(CN4CCC(C(=O)NC(CO)CO)CC4)cc1F)(C3)C2`, the IC50 in assay [1] turned out to be 2.25 nM; in assay [2] it was 31.6 nM.

On to `C[C@]12C[C@@H]3C[C@](C)(C1)C[C@@](NC(=O)Nc1ccc(CN4CCCC(C(=O)N(CCO)CCO)C4)cc1F)(C3)C2` (stereo partly drawn), for which the IC50 in assay [1] came out at 0.29 nM; in assay [2], 0.28 nM.

In the case of `CCC(=O)N1CCCN(C(=O)C2CCCN(C(=O)c3ccc(NC(=O)N[C@@]45C[C@@H]6C[C@@](C)(C[C@@](C)(C6)C4)C5)c(F)c3)C2)CC1` (stereo partly drawn), the IC50 came to 0.58 nM in assay [1] and 0.56 nM in assay [2].

Regarding `CC(O)CNC(=O)C1CCCN(C(=O)c2ccc(NC(=O)N[C@]34C[C@@H]5C[C@@](C)(C[C@@](C)(C5)C3)C4)c(F)c2)C1` (stereo partly drawn), the figures for the IC50 in assay [1] and in assay [2] were 0.23 nM and 0.28 nM, respectively.

For the compound `CCN(CC)C(=O)C1CCCN(C(=O)c2ccc(NC(=O)N[C@]34C[C@@H]5C[C@@](C)(C[C@@](C)(C5)C3)C4)c(F)c2)C1` (stereo partly drawn), the IC50 in assay [1] came out at 0.38 nM; in assay [2] it was 0.35 nM.

Turning to `CCC(C)C(=O)N1CCCN(C(=O)C2CCCN(C(=O)c3ccc(NC(=O)N[C@@]45C[C@@H]6C[C@@](C)(C[C@@](C)(C6)C4)C5)c(F)c3)C2)CC1` (stereo partly drawn), the IC50 in assay [1] was 0.9 nM; in assay [2], 1.4 nM.

Turning to `CC(=O)N1CCCN(C(=O)C2CCCN(C(=O)c3ccc(NC(=O)N[C@@]45C[C@@H]6C[C@@](C)(C[C@@](C)(C6)C4)C5)c(F)c3)C2)CC1` (stereo partly drawn), the IC50 is 0.26 nM in assay [1] and 0.6 nM in assay [2].

In the case of `C[C@]12C[C@@H]3C[C@](C)(C1)C[C@@](NC(=O)Nc1ccc(C(=O)NC4CCC(C(=O)N5CCC(CCO)CC5)CC4)cc1F)(C3)C2` (stereo partly drawn), the values for the IC50 in assay [1] and in assay [2] were 0.53 nM and 16 nM, respectively.

As for `C[C@]12C[C@@H]3C[C@](C)(C1)C[C@@](NC(=O)Nc1ccc(CN4CCC(C(=O)NC(CO)(CO)CO)CC4)cc1F)(C3)C2`, the figures for the IC50 in assay [1] and in assay [2] were 0.12 nM and 6.51 nM, respectively.

As for `CCN(CC)C(=O)C1CCCN(Cc2ccc(NC(=O)N[C@@]34C[C@@H]5C[C@@](C)(C[C@@](C)(C5)C3)C4)c(F)c2)C1` (stereo partly drawn), the IC50 in assay [1] came to 0.56 nM; in assay [2], 0.35 nM.

`C[C@]12C[C@@H]3C[C@](C)(C1)C[C@@](NC(=O)Nc1ccc(CN4CCCC(C(=O)N5CCN(CCO)CC5)C4)cc1F)(C3)C2` (stereo partly drawn): the IC50 came out at 0.55 nM in assay [1] and 0.98 nM in assay [2].

Turning to `CN(C)C(=O)C1CCCN(Cc2ccc(NC(=O)N[C@@]34C[C@@H]5C[C@@](C)(C[C@@](C)(C5)C3)C4)c(F)c2)C1` (stereo partly drawn), the IC50 turned out to be 0.12 nM in assay [1] and 0.7 nM in assay [2].

On to `CCC(C)C(=O)N1CCCN(C(=O)C2CCCN(Cc3ccc(NC(=O)N[C@@]45C[C@@H]6C[C@@](C)(C[C@@](C)(C6)C4)C5)c(F)c3)C2)CC1` (stereo partly drawn), for which the IC50 was determined as 0.62 nM in assay [1] and 0.25 nM in assay [2].

As to `C=C(C)C(=O)N1CCCN(C(=O)C2CCCN(Cc3ccc(NC(=O)N[C@@]45C[C@@H]6C[C@@](C)(C[C@@](C)(C6)C4)C5)c(F)c3)C2)CC1` (stereo partly drawn), the results for the IC50 in assay [1] and in assay [2] were 1.3 nM and 0.9 nM, respectively.

With `CC(O)CNC(=O)C1CCC(NC(=O)c2ccc(NC(=O)N[C@@]34C[C@@H]5C[C@@](C)(C[C@@](C)(C5)C3)C4)c(F)c2)CC1` (stereo partly drawn), the IC50 is 0.44 nM in assay [1] and 1.54 nM in assay [2].
